Consider 23 compounds from patent US8653096B2, “Chemokine receptor antagonists and methods of use thereof” (Millennium Pharmaceuticals, Inc., priority 2001, dated 2014).

The target of the first assay is T1, RANTES/MIP-1α chemokine receptor (CCR1) in THP-1 cell membranes (Homo sapiens, UniProt P32246).
T1 construct: Membranes were prepared from THP-1 cells (ATCC #TIB202); host or cells: THP-1 cells (membrane preparation)
T1 sequence (P32246 1-355): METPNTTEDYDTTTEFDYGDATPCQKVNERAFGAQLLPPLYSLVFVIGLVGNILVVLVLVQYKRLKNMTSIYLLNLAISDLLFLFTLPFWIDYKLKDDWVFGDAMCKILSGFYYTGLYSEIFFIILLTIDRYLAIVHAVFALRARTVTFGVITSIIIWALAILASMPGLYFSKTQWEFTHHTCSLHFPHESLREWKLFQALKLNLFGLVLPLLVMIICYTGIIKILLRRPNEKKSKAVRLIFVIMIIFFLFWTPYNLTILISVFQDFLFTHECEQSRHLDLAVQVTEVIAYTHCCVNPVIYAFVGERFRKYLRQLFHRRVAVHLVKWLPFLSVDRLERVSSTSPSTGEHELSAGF
In words: Receptor binding assay: 125I-RANTES or 125I-MIP-1α binding to THP-1 cell membranes.
Details: not given
As a reminder, the IC50 is the concentration needed to halve the response being measured. `CC(C)(O)c1ccc2c(c1)C(=CCCN1CCC(C#N)(Nc3ccc(Cl)cc3)CC1)c1cccnc1CO2` [Example 464, 4-(4-Chloro-phenylamino)-1-{3-[7-(1-hydroxy-1-methyl-ethyl)-11H-10-oxa-1-aza-dibenzo[a,d]cyclohepten-5-ylidene]-propyl}-piperidine-4-carbonitrile]: the IC50 was under 1000 nM.

For the compound `COC(=O)C1(Nc2ccc(Cl)cc2)CCN(CCC=C2c3cc(C(C)(C)O)ccc3OCc3ncccc32)CC1` [Example 465, 4-(4-Chloro-phenylamino)-1-{3-[7-(1-hydroxy-1-methyl-ethyl)-11H-10-oxa-1-aza-dibenzo[a,d]cyclohepten-5-ylidene]-propyl}-piperidine-4-carboxylic acid methyl ester], the IC50 is under 1000 nM.

Staying with this assay, now noted: inhibitor concentration required for 50% inhibition of specific binding; 125I-RANTES or 125I-MIP-1α as ligand, THP-1 cell membranes; read-out: IC50.
As to “4-(4-Chlorophenyl)-1-[3-(5,11-dihydro-7-dimethylaminocarbonylmethyloxy[1]benzoxepino[2,3-b]pyridin-5-ylidene)propyl]piperidin-4-ol [Example 134]”, the IC50 is under 1000 nM.

Take `OC1(c2ccc(Cl)cc2)CCN(CCC=C2c3cc(CN4CCOCC4)ccc3OCc3ncccc32)CC1` [Example 278, 4-(4-Chlorophenyl)-1-[3-(5,11-dihydro-7-(4-morpholino)methyl[1]benzoxepino[2,3-b]pyridin-5-ylidene)propyl]piperidin-4-ol]: the IC50 is under 1000 nM.

On to “4-Cyano-1-[3-(5,11-dihydro-7-methoxy[1]benzoxepino[2,3-b]pyridin-5-ylidene)propyl]-4-phenylpiperidine [Example 63]”, for which the IC50 is under 10000 nM.

`OC1(c2ccc(Cl)cc2)CCN(CCC=C2c3ccccc3C=Cc3ccccc32)CC1` [Example 21, 4-(4-Chlorophenyl)-1-[3-(5H-dibenzo[a,d]cycloheptene-5-ylidene)propyl]piperidin-4-ol]: the IC50 was under 1000 nM.

On to “4-(4-Chlorophenyl)-1-[3-(5,11-dihydro-7-hydroxy[1]benzoxepino[2,3-b]pyridin-5-ylidene)propyl]piperidine [Example 151]”, for which the IC50 was under 1000 nM.

`CC(=O)C1(c2ccc(Cl)cc2)CCN(CCC=C2c3cc(C(C)(C)O)ccc3OCc3ncccc32)CC1` [Example 457, 1-(4-(4-Chloro-phenyl)-1-{3-[7-(1-hydroxy-1-methyl-ethyl)-11H-10-oxa-1-aza-dibenzo[a,d]cyclohepten-5-ylidene]-propyl}-piperidin-4-yl)-ethanone]: the IC50 is under 1000 nM.

With “4-(4-Chlorophenyl)-1-[3-(7-diethylaminocarbonylmethyloxy-5,11-dihydro[1]benzoxepino[2,3-b]pyridin-5-ylidene)propyl]piperidin-4-ol [Example 263]”, the IC50 was under 1000 nM.

Turning to “1-[3-(7-Carbamoyl-5,11-dihydro[1]benzoxepino[2,3-b]pyridin-5-ylidene)propyl]-4-(4-chlorophenyl)piperidin-4-ol [Example 269]”, the IC50 is under 1000 nM.

For the compound `OCCCc1ccc2c(c1)C(=CCCN1CCC(O)(c3ccc(Cl)cc3)CC1)c1cccnc1CO2` [Example 289, 4-(4-Chlorophenyl)-1-[3-(7-(1-(3-hydroxy)propyl)-5,11-dihydro[1]benzoxepino[2,3-b]pyridin-5-ylidene)propyl]piperidin-4-ol], the IC50 is under 1000 nM.

In the case of `CC1CN(CCC=C2c3cc(OCC(C)(C)O)ccc3OCc3ncccc32)CCC1(O)c1ccc(Cl)cc1` (centres unmarked) [Example 522, 4-(4-Chloro-phenyl)-1-{3-[7-(2-hydroxy-2-methyl-propoxy)-11H-10-oxa-1-aza-dibenzo[a,d]cyclohepten-5-ylidene]-propyl}-3-methyl-piperidin-4-ol], the IC50 is under 1000 nM.

For `CN(C)C(=O)C(C)(C)Oc1ccc2c(c1)C(=CCCN1CCC(O)(c3ccc(Cl)cc3)CC1)c1cccnc1CO2` [Example 176, 4-(4-Chlorophenyl)-1-[3-(7-(1-dimethyaminocarbonyl-1-methyl)ethyloxy-5,11-dihydro[1]benzoxepino[2,3-b]pyridin-5-ylidene)propyl]piperidin-4-ol], the IC50 is under 1000 nM.

In the case of `CCN(C(=O)C1CCN(CCC=C2c3cc(C(C)(C)O)ccc3OCc3ncccc32)C1)c1ccc(Cl)cc1` (centres unmarked) [Example 531, 1-{3-[7-(1-Hydroxy-1-methyl-ethyl)-11H-10-oxa-1-aza-dibenzo[a,d]cyclohepten-5-ylidene]-propyl}-pyrrolidine-3-carboxylic acid (4-chloro-phenyl)-ethyl-amide], the IC50 was under 1000 nM.

For “1-[3-(5,11-Dihydro-7-methoxy[1]benzoxepino[2,3-b]pyridin-5-ylidene)propyl]-4-(4-methoxyphenyl)piperidin-4-ol [Example 140]”, the IC50 was over 10000 nM.

For `CCN(c1ccc(Cl)cc1)[C@@H]1CCN(CCC=C2c3cc(C(C)(C)O)ccc3OCc3ncccc32)C1` [Example 525, (R)-2-[5-(3-{3-[(4-Chloro-phenyl)-ethyl-amino]-pyrrolidin-1-yl}-propylidene)-5,11-dihydro-10-oxa-1-aza-dibenzo[a,d]cyclohepten-7-yl]-propan-2-ol], the IC50 is under 20000 nM.

In the case of `CC1CN(CCC=C2c3cc(C(C)(C)O)ccc3OCc3ncccc32)CCN1c1ccc(Cl)cc1` (centres unmarked) [Example 519, 2-(5-{3-[4-(4-Chloro-phenyl)-3-methyl-piperazin-1-yl]-propylidene}-5,11-dihydro-10-oxa-1-aza-dibenzo[a,d]cyclohepten-7-yl)-propan-2-ol], the IC50 was under 1000 nM.

Take `CCN(Cc1ccc(Cl)cc1)CC1CCN(CCC=C2c3cc(C(C)(C)O)ccc3OCc3ncccc32)C1` (stereo in doubt) [Example 526, (R)-2-{5-[3-(3-{[(4-Chloro-benzyl)-ethyl-amino]-methyl}-pyrrolidin-1-yl)-propylidene]5,11-dihydro-10-oxa-1-aza-dibenzo[a,d]cyclohepten-7-yl}-propan-2-ol]: the IC50 was under 1000 nM.

Take `CCOc1ccc2c(c1)C(=CCCN1CCC(O)(c3ccc(Cl)cc3)CC1)c1ccccc1CO2` [Example 34, 4-(4-Chlorophenyl)-1-[3-(6,11-dihydro-2-ethoxydibenz[b,e]oxepin-11-ylidene)propyl]piperidin-4-ol]: the IC50 was under 1000 nM.

Take “4-Azido-4-(4-chlorophenyl)-1-[3-(5,11-dihydro-7-methoxy[1]benzoxepino[2,3-b]pyridin-5-ylidene)propyl]piperidine [Example 187]”: the IC50 is under 1000 nM.

Turning to `CN(C)CCOc1ccc2c(c1)C(=CCCN1CCC(O)(c3ccc(Cl)cc3)CC1)c1cccnc1CO2` [Example 131], the IC50 is under 1000 nM.

On to “4-(4-Chlorophenyl)-1-[3-(7-(2-ethoxycarboxy)ethyl-5,11-dihydro[1]benzoxepino[2,3-b]pyridin-5-ylidene)propyl]piperidin-4-ol [Example 288]”, for which the IC50 was under 1000 nM.

In the case of `CCOC(=O)[C@H]1CCCN(NC(=O)c2ccc3c(c2)C(=CCCN2CCC(O)(c4ccc(Cl)cc4)CC2)c2cccnc2CO3)C1` [Example 422, 4-(4-Chlorophenyl)-1-[3-(5,11-dihydro-7-(S-3-ethoxycarbonyl-piperidine-1-yl)-carbamoyl-[1]benzoxepino[2,3-b]pyridin-5-ylidene)propyl]piperidine-4-ol], the IC50 was under 1000 nM.
